Results from PubChem BioAssay AID1963856 (Molecular Pharmacology Branch, DTP, NCI, 2024).

System: LG0567-F671-PDC KRAS tumor spheroid viability
Experiment: Anticancer human tumor LG0567-F671-PDC patient-derived lung adenocarcinoma cell line growth inhibition [KRAS2]
Details: spheroids with HUVEC and MSC; for IC50: curve of first compound; for viability, T/C: stronger effect = lower value
Procedure, shortened: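 KRAS-mutant tumor cells were grown as spheroids with HUVEC endothelial cells and human MSCs as stroma. Targeted agents were tested alone and with KRAS pathway inhibitors. Doses started at or near clinical Cmax, or 10 microM, descending half-log.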

[1] = second compound 0.1 µM, first compound 0.0316 µM
[2] = second compound 0.1 µM, first compound 0.1 µM
[3] = second compound 0.316 µM, first compound 0.0316 µM
[4] = second compound 0.316 µM, first compound 0.1 µM
[5] = second compound 1 µM, first compound 0.0316 µM
[6] = second compound 1 µM, first compound 0.1 µM
[7] = second compound 3.16 µM, first compound 0.0316 µM
[8] = second compound 3.16 µM, first compound 0.1 µM
[9] = second compound 10 µM, first compound 0.0316 µM
[10] = second compound 10 µM, first compound 0.1 µM
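Note: drug exposure lasted seven days after spheroids formed for three days.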
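Throughout, for viability, T/C: 100% = DMSO vehicle control viability.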

CCNC(=O)CC1N=C(c2ccc(Cl)cc2)c2cc(OC)ccc2-n2c(C)nnc21 (centres undefined) + COc1cc2nc(C)nc(NC(C)c3cc(N)cc(C(F)(F)F)c3)c2cc1OC1CCOC1
IC50 (second compound 0.1 µM): 0.41 µM
IC50 (second compound 0.316 µM): 0.411 µM
IC50 (second compound 1 µM): 0.403 µM
IC50 (second compound 3.16 µM): 0.319 µM
IC50 (second compound 10 µM): 0.224 µM
viability, T/C [1]: 97%
viability, T/C [2]: 82.3%
viability, T/C (second compound 0.1 µM, first compound 0.316 µM): 61.6%
viability, T/C (second compound 0.1 µM, first compound 1 µM): 17.1%
viability, T/C (second compound 0.1 µM, first compound 3.16 µM): 8.29%
viability, T/C (second compound 0.1 µM, first compound 10 µM): 5.17%
viability, T/C [3]: 109%
viability, T/C [4]: 96.5%
viability, T/C (second compound 0.316 µM, first compound 0.316 µM): 62.3%
viability, T/C (second compound 0.316 µM, first compound 1 µM): 10%
viability, T/C (second compound 0.316 µM, first compound 3.16 µM): 8.83%
viability, T/C (second compound 0.316 µM, first compound 10 µM): 7.95%
viability, T/C [5]: 84.6%
viability, T/C [6]: 87.8%
viability, T/C (second compound 1 µM, first compound 0.316 µM): 60.9%
viability, T/C (second compound 1 µM, first compound 1 µM): 9.34%
viability, T/C (second compound 1 µM, first compound 3.16 µM): 7.07%
viability, T/C (second compound 1 µM, first compound 10 µM): 8.48%
viability, T/C [7]: 78.9%
viability, T/C [8]: 69.9%
viability, T/C (second compound 3.16 µM, first compound 0.316 µM): 50.8%
viability, T/C (second compound 3.16 µM, first compound 1 µM): 9.17%
viability, T/C (second compound 3.16 µM, first compound 3.16 µM): 6.95%
viability, T/C (second compound 3.16 µM, first compound 10 µM): 10.1%
viability, T/C [9]: 74.5%
viability, T/C [10]: 59.8%
viability, T/C (second compound 10 µM, first compound 0.316 µM): 47.5%
viability, T/C (second compound 10 µM, first compound 1 µM): 20.6%
viability, T/C (second compound 10 µM, first compound 3.16 µM): 10%
viability, T/C (second compound 10 µM, first compound 10 µM): 8.82%

Cn1ncnc1[C@H]1c2n[nH]c(=O)c3cc(F)cc(c23)N[C@@H]1c1ccc(F)cc1 + CNCc1ccccc1-c1csc(C(C)Nc2nc(C)nc3cc(OC)c(OC)cc23)c1
IC50 (second compound 0.1 µM): > 0.1 µM
IC50 (second compound 0.316 µM): > 0.1 µM
IC50 (second compound 1 µM): 0.0131 µM
IC50 (second compound 3.16 µM): < 0.000316 µM
IC50 (second compound 10 µM): < 0.000316 µM
viability, T/C (second compound 0.1 µM, first compound 0.000316 µM): 79.2%
viability, T/C (second compound 0.1 µM, first compound 0.001 µM): 82%
viability, T/C (second compound 0.1 µM, first compound 0.00316 µM): 73.4%
viability, T/C (second compound 0.1 µM, first compound 0.01 µM): 70%
viability, T/C [1]: 71.4%
viability, T/C [2]: 74.5%
viability, T/C (second compound 0.316 µM, first compound 0.000316 µM): 64.8%
viability, T/C (second compound 0.316 µM, first compound 0.001 µM): 64.9%
viability, T/C (second compound 0.316 µM, first compound 0.00316 µM): 61.1%
viability, T/C (second compound 0.316 µM, first compound 0.01 µM): 57.6%
viability, T/C [3]: 58%
viability, T/C [4]: 60.6%
viability, T/C (second compound 1 µM, first compound 0.000316 µM): 46.2%
viability, T/C (second compound 1 µM, first compound 0.001 µM): 54.4%
viability, T/C (second compound 1 µM, first compound 0.00316 µM): 53.7%
viability, T/C (second compound 1 µM, first compound 0.01 µM): 55.8%
viability, T/C [5]: 42.2%
viability, T/C [6]: 46.1%
viability, T/C (second compound 3.16 µM, first compound 0.000316 µM): 0.22%
viability, T/C (second compound 3.16 µM, first compound 0.001 µM): 0.9%
viability, T/C (second compound 3.16 µM, first compound 0.00316 µM): 0.17%
viability, T/C (second compound 3.16 µM, first compound 0.01 µM): 0.13%
viability, T/C [7]: 0.2%
viability, T/C [8]: 0.36%
viability, T/C (second compound 10 µM, first compound 0.000316 µM): 0.39%
viability, T/C (second compound 10 µM, first compound 0.001 µM): 0.63%
viability, T/C (second compound 10 µM, first compound 0.00316 µM): 0.39%
viability, T/C (second compound 10 µM, first compound 0.01 µM): 0.11%
viability, T/C [9]: 1.32%
viability, T/C [10]: 0.63%

COc1cc(Nc2ncc3c(n2)-c2ccc(Cl)cc2C(c2c(F)cccc2OC)=NC3)ccc1C(=O)O
viability, T/C (compound 0.0316 µM): 92.8% [middle of 5 runs]
viability, T/C (compound 0.316 µM): 74% [middle of 5 runs]
viability, T/C (compound 3.16 µM): 67.6% [middle of 5 runs]
viability, T/C (compound 10 µM): 48.9% [middle of 5 runs]
